melting point | Structure (SMILES)
79 to 81 °C | Cc1ccc(C(N)Cn2ccnc2)c(C)c1 (stereo unspecified)
74 to 76 °C | Cc1cc(CO)ncn1
149 to 151 °C | Cc1c(N)cccc1CS(C)(=O)=O
208 to 210 °C | Cc1cc(-c2ccccc2)nc(S)n1
74 to 76 °C | CCCCNc1nnc(C)c2ccccc12
178 to 180 °C | O=C(O)c1cnn(-c2ncccc2Cl)c1C(F)F
183 to 185 °C | Sc1nnnc2ccccc12
77 to 79 °C | CC(C)(C)OC(=O)N1CCC(c2ccc(C(F)(F)F)cc2)C(N)C1 (stereo unspecified)
129 to 131 °C | CCOc1cc(C(=O)O)ccc1OCC(=O)N1CCCCC1
260 to 265 °C | O=C(O)c1cc(N=Nc2ccc(S(=O)(=O)Nc3ccccn3)cc2)ccc1O
176 to 178 °C | Nc1cccc(-n2ccnc2S)c1
108 to 110 °C | O=C(CBr)c1ccc(S(=O)(=O)N2CCCCC2)cc1
80 to 82 °C | Cc1noc(C2(C)CCN(C(=O)OC(C)(C)C)CC2)n1
92 to 94 °C | COc1ccc(Br)cc1C(=O)CBr
57 to 59 °C | Cc1cc(Cl)c(Cl)cc1[N+](=O)[O-]
137 to 139 °C | NCc1ccc(NC(=O)c2cccnc2)cc1
68 to 70 °C | O=C(Cc1ccccc1Cl)c1ccccc1
89 to 91 °C | O=S1(=O)CCCN1c1ccc(Br)cc1F
74 to 76 °C | Cc1cc(CC#N)c(C)n1-c1ccc(Cl)cc1
259 to 261 °C | Cc1ccc(Oc2ccc3[nH]cccc-3c2=N)c(Br)c1
90 to 92 °C | N#CC1(c2cccc(Br)c2)CCOCC1
129 to 131 °C | CCOc1ccc(NC(=O)CCl)cc1S(=O)(=O)N1CCCCC1
229 to 231 °C | Cc1nn(-c2ccc(Br)cc2)cc1C(=O)O
55 to 57 °C | O=C(O)CCNC(=O)c1cnccn1
135 to 137 °C | Cc1cc(S(=O)(=O)Cl)ccc1OCCCC(=O)O
179 to 181 °C | Cc1nc(-c2ccc(Br)cc2Cl)n[nH]1

melting point | Structure (SMILES)
151 to 153 °C | COCCOc1ccc(C(=O)O)cc1
124 to 126 °C | N#CCNC(=O)CN1CCC(=O)CC1
165 to 167 °C | O=C(O)c1ccccc1SC1CCS(=O)(=O)C1 (stereo unspecified)
34 to 36 °C | CC(C(=O)O)C(C)(C)C (stereo unspecified)
198 to 200 °C | O=C(O)CC(O)c1cc(Cl)cc(Cl)c1 (stereo unspecified)
28 to 30 °C | Cc1ccc2c(c1)C(=O)CCC2
63 to 65 °C | O=[N+]([O-])c1cc(Cl)ccc1I
164 to 166 °C | C=CCNS(=O)(=O)c1cc(C(=O)O)ccc1F
93 to 95 °C | Cc1ccc(C(=O)Cc2ccccc2)cc1C
117 to 119 °C | COc1cccc(Nc2nc3ccccc3s2)c1
104 to 106 °C | Cc1cc(-n2nc(C)cc2N)nc(C)n1
148 to 150 °C | O=C(O)CNC(=O)c1cccc(Br)c1
173 to 175 °C | CCOC(=O)Cc1cc(=O)oc2ccc(O)cc12
137 to 139 °C | COc1ccc(S(=O)(=O)N2CCCCC2)cc1N
106 to 108 °C | O=C(O)CCn1cnc2ccccc21
73 to 75 °C | CNC1CCN(c2cc(OC)cc(OC)c2)C1=O (stereo unspecified)
57 to 59 °C | CC(C)(C)OC(=O)NC(CN)C1CC1 (stereo unspecified)
146 to 148 °C | COc1cc2c(cc1/C=C/C(=O)O)OC(C)C2 (stereo unspecified)
164 to 166 °C | CNS(=O)(=O)c1ccc(-c2cccs2)c(C(=O)O)c1
202 to 204 °C | COc1ccc(Cc2nnc(S)o2)cc1OC
171 to 173 °C | Cc1cc(N)n(-c2cc(Cl)ncn2)n1
122 to 124 °C | CN1C(=O)CCC(CO)C1c1cccc(Cl)c1 (stereo unspecified)
45 to 47 °C | ClCc1nnnn1-c1ccccc1Br
33 to 35 °C | CCC(CC)CS(N)(=O)=O
65 to 67 °C | CC(C)(C)OC(=O)NC(CN)c1ccccc1 (stereo unspecified)
271 to 273 °C | Nc1nnc(-c2ccncc2)[nH]1

Structure (SMILES) | melting point
Clc1ccc(Cn2cncn2)cn1 | 61 to 63 °C
N#Cc1ccc(NC(=O)CCCl)cc1Cl | 156 to 158 °C
NC(=S)CF | 53 to 55 °C
Cc1ccc2c(C3CCNCC3)c[nH]c2c1 | 176 to 178 °C

— a melting point compilation (Tetko et al.)
